Key:
Homo sapiens = species on record: Homo sapiens; assay: Selectivity ratio of IC50 for inhibition of CES2A1 in human liver microsomes to IC50 for CES1A1 in human liver microsomes; conditions: Microsome
Liver carboxylesterase 1 = biological target: T1, Liver carboxylesterase 1 (Homo sapiens, UniProt P23141); assay: Inhibition of CES1A1 in human liver microsomes using D-luciferin methyl ester as substrate preincubated for 10 mins followed by substrate addition and measured after 10 mins by fluorescence assay
T1 sequence (P23141 whole entry): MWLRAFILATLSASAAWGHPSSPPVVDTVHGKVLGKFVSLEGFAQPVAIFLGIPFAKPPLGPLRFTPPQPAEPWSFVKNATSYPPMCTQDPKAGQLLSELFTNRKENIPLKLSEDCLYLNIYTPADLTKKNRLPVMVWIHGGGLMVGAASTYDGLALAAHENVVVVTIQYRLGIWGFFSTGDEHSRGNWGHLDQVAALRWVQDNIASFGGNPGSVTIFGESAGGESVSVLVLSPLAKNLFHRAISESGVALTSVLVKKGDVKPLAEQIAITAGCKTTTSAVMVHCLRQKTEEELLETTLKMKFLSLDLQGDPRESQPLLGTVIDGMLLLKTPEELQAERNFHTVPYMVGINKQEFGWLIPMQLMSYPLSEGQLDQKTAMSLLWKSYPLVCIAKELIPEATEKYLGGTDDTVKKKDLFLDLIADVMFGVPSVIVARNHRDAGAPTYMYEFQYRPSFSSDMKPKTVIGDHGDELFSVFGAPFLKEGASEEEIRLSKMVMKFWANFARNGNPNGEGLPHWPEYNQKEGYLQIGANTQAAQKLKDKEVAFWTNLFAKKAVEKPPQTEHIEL

Row | SMILES | Ratio IC50 (Homo sapiens) | IC50 (Liver carboxylesterase 1)
1 | C=C1CC[C@]2(C(=O)O)CC[C@]3(C)C(=CC[C@@H]4[C@@]5(C)CC[C@H](O)[C@@](C)(CO)[C@@H]5CC[C@]43C)[C@@H]2C1 | 30 | 0.1 µM
2 | C=C(C)[C@@H]1CC[C@]2(C)CC[C@]3(C)[C@H](CC[C@@H]4[C@@]5(C)CC[C@H](O)C(C)(C)[C@@H]5CC[C@]43C)[C@@H]12 [LUPEOL] | 30 | 0.1 µM
3 | C[C@H]1[C@H](C)CC[C@]2(C(=O)O)CC[C@]3(C)C(=CC[C@@H]4[C@@]5(C)CC[C@H](O)C(C)(C)[C@@H]5CC[C@]43C)[C@H]12 [URSOLIC ACID] | 30 | 0.1 µM
4 | C=C(C)[C@@H]1CC[C@]2(C(=O)O)CC[C@]3(C)[C@H](CC[C@@H]4[C@@]5(C)CC[C@@H]6OC(C)(C)OC[C@@]6(C)[C@@H]5CC[C@]43C)[C@@H]12 | 30 | 0.1 µM
5 | CC1(C)CC[C@]2(C)CC[C@]3(C)C(=CC[C@@H]4[C@@]5(C)CCC(=O)C(C)(C)[C@@H]5CC[C@]43C)[C@@H]2C1 | – | 0.1 µM
6 | C=C(C)[C@@H]1CC[C@]2(C(=O)O)CC[C@]3(C)[C@H](CC[C@@H]4[C@@]5(C)CC[C@H](O)[C@@](C)(CO)[C@@H]5CC[C@]43C)[C@@H]12 | 30 | 0.1 µM
7 | CC1(C)CC[C@]2(C(=O)O)CC[C@]3(C)C(=CC[C@@H]4[C@@]5(C)CC[C@H](O)C(C)(C)[C@@H]5CC[C@]43C)[C@@H]2C1 [OLEANOLIC_ACID] | 30 | 0.1 µM
8 | C=C1CC[C@]2(C(=O)O)CC[C@]3(C)C(=CC[C@@H]4[C@@]5(C)CC[C@@H]6OC(C)(C)OC[C@@]6(C)[C@@H]5CC[C@]43C)[C@@H]2C1 | 30 | 0.1 µM
9 | CC1(C)CC[C@]2(C(=O)O)CC[C@]3(C)C(=CC[C@@H]4[C@@]5(C)CC[C@@H]6OC(C)(C)OC[C@@]6(C)[C@@H]5CC[C@]43C)[C@@H]2C1 | 30 | 0.1 µM

Source: ChEMBL document CHEMBL4699508, “Bioactivity-Guided Discovery of Human Carboxylesterase Inhibitors from the Roots of Paeonia lactiflora” (J Nat Prod, 2020)
